# Legend:
# E. aerogenes ATCC13048e = experiment: Relative respiratory activity with 22 effectors (Example 3); format: cell-based, Enterobacter aerogenes; details: 5 μM DCIP, no effector = 100%, n = 26
# Excerpt: (§1) In this example, each microorganism is subjected to 22 different effector compounds in addition to control measurements. […] For each microorganism, duplicate measurements were made of 22 different effector compounds. In addition, duplicate measurements were made a control test containing no effector compound. One additional measurement was made of a control solution containing the microorganism with ferricyanide but without effector or DCIP.
# (§2) In this example, each normalized data set containing duplicate measurements for each of 22 effector compounds is referenced to the duplicate internal controls to allow batch-to-batch comparison. The obtained signals of charge per unit electrode area for the duplicate control measurements are averaged and set at 100% respiratory cycle activity. […] The data set used to generate pattern recognition plots consists of 5 replicate batches (each batch containing duplicate measurements for each of 22 effector compounds) for each cell culture (10 strains). This is used to generate a 50 (columns)×22 (rows) matrix. The matrix is imported into MATLAB (Version 6.0). Factor analysis is performed using the MATLAB Chemometric Toolbox (Version 2.3) and involves the generation of reduced eigenvectors to determine the optimal number of factors, examination of the resulting residuals plots for randomness, and the generation of scores for the first four principle components.
# S. cerevisiae = experiment: as above; format: cell-based, Saccharomyces cerevisiae; details: 5 μM DCIP, no effector = 100%, n = 10
# Excerpt: as §1, §2
# Gram-positive bacteria = details: effector 1 mM instead of 1 mM glucose, relative to + DCIP
# Protocol: The following steps are used for each test: (1) preheating for a fixed time (4 min) and a fixed temperature (35° C.) a 150 μL aliquot of buffer containing 1 mM glucose (glc) with or without 5 μM DCIP; (2) this is followed by the addition of 50 μL of the bacterial suspension to the sample for a fixed time (10 min) and at a fixed temperature (35° C.); (3) this is followed by the addition of the mediator (50 μL of 0.4 M potassium ferricyanide) for a fixed time (10 min) and at a fixed temperature (35° C.); and (4) measurement of current at a fixed voltage difference (100 mV) between two platinum electrodes for a fixed time (120 sec) at a fixed temperature (35° C.). The final ferricyanide concentration in the sample prior to reaction with the microorganism is 40 mM.
# In this configuration the assay uses two platinum electrodes each having a surface area of approximately 0.03 cm^2. The measured current depends on the concentration of the least-concentrated species of the redox-couple in solution. […] The magnitude of the measured current indicates the quantity of the reduced mediator present in the assay solution. The measured current is integrated over time to produce a plot of total charge against time. The change in total charge is measured between 30 and 120 seconds after the potential is applied. […]
# E. faecalis [1] = experiment: Respiration assay (Example 1), electrochemical ferricyanide/DCIP mediator consumption; format: cell-based, Enterococcus faecalis; details: n=2
# Protocol: (§3) The ferricyanide solution is added so that the final ferricyanide concentrations is 50 mM.
# (§4) The bacterial suspensions were adjusted to a MacFarland Standard of 5.0 (5.0×10sup.8 cfu/mL) or an optical density of 1.2 measured at 625 nm and cell growth was stopped by cooling the bacterial suspension for a minimum of 15 min in an ice-bath.
# S. aureus ATCC6538P = experiment: Relative respiratory activity with 22 effectors (Example 3); format: cell-based, Staphylococcus aureus; details: 5 μM DCIP, no effector = 100%, n = 20
# Excerpt: as §1, §2
# [2] = tested on: Staphylococcus aureus ATCC 6538P; experiment: Respiration assay (Example 1), electrochemical ferricyanide/DCIP mediator consumption; format: cell-based; details: n=2
# Protocol: as §3, §4
# P. aeruginosa = experiment: Relative respiratory activity with 22 effectors (Example 3); format: cell-based, Pseudomonas aeruginosa; details: 5 μM DCIP, no effector = 100%, n = 18
# Excerpt: as §1, §2
# E. faecalis [3] = experiment: as above; format: cell-based, Enterococcus faecalis; details: 5 μM DCIP, no effector = 100%, n = 20
# Excerpt: as §1, §2
# P. vulgaris ATCC6380 = experiment: as above; format: cell-based, Proteus vulgaris; details: 5 μM DCIP, no effector = 100%, n = 20
# Excerpt: as §1, §2
# E. coli HB101 = experiment: as above; format: cell-based; details: 5 μM DCIP, no effector = 100%, n = 18
# Excerpt: as §1, §2
# E. coli JM105 = experiment: as above; format: cell-based; details: 5 μM DCIP, no effector = 100%, n = 10
# Excerpt: as §1, §2
# E. coli B = experiment: as above; format: cell-based
# Excerpt: as §1, §2
# E. coli Neotype = experiment: as above; format: cell-based; details: 5 μM DCIP, no effector = 100%, n = 26
# Excerpt: as §1, §2
smiles,measurement,setting,value
O=C[C@@H](O)[C@@H](O)[C@H](O)[C@H](O)CO [D-mannose],activity at 20000 µM,"E. aerogenes ATCC13048e; Klebsiella aerogenes, ATCC13048E, effector 20 mM",296%
same,activity at 20000 µM,"S. cerevisiae; Saccharomyces cerevisiae, effector 20 mM",125%
same,respiratory signals in the absence of 5 μM DCIP,Gram-positive bacteria,below 60%
same,Slope data,E. faecalis [1]; substrate 1 mM,17.8 μC/min
same,Slope data,E. faecalis [1]; substrate 10 mM,19.6 μC/min
same,Slope data,E. faecalis [1]; substrate 50 mM,14.5 μC/min
same,activity at 20000 µM,"S. aureus ATCC6538P; Staphylococcus aureus, ATCC6538P, effector 20 mM",262%
same,Slope data,[2]; substrate 1 mM,16.6 μC/min
same,Slope data,[2]; substrate 10 mM,14.0 μC/min
same,Slope data,[2]; substrate 50 mM,15.1 μC/min
same,activity at 20000 µM,"P. aeruginosa; Pseudomonas aeruginosa, effector 20 mM",108%
same,activity at 20000 µM,"E. faecalis [3]; Enterococcus faecalis, effector 20 mM",654%
same,activity at 20000 µM,"P. vulgaris ATCC6380; Proteus vulgaris, ATCC6380, effector 20 mM",250%
same,activity at 20000 µM,"E. coli HB101; Escherichia coli, HB101, effector 20 mM",222%
same,activity at 20000 µM,"E. coli JM105; Escherichia coli, JM105, effector 20 mM",212%
same,activity at 20000 µM,"E. coli B; Escherichia coli, effector 20 mM, 5 μM DCIP, no effector = 100%, n = 10",152%
same,activity at 20000 µM,"E. coli Neotype; Escherichia coli, effector 20 mM",139%
O=C(O)CCC(=O)O [Succinate],relative %-respiratory activity,E. aerogenes ATCC13048e; effector 3 mM,187%
same,relative %-respiratory activity,S. cerevisiae; effector 3 mM,108%
same,respiratory signals in the absence of 5 μM DCIP,Gram-positive bacteria,< 80%
same,relative %-respiratory activity,S. aureus ATCC6538P; effector 3 mM,167%
same,relative %-respiratory activity,P. aeruginosa; effector 3 mM,102%
same,relative %-respiratory activity,E. faecalis [3]; effector 3 mM,87%
same,relative %-respiratory activity,P. vulgaris ATCC6380; effector 3 mM,520%
same,relative %-respiratory activity,E. coli HB101; effector 3 mM,172%
same,relative %-respiratory activity,E. coli JM105; effector 3 mM,287%
same,relative %-respiratory activity,E. coli B,134%
same,relative %-respiratory activity,E. coli Neotype; effector 3 mM,127%

# Source: patent US20070099259A1, “ELECTROCHEMICAL ASSAY FOR THE IDENTIFICATION OF MICROORGANISMS” (RAPID LABORATORY MICROSYSTEMS INC., priority 2003, published 2007)
